pEC50, pIC50: −log10 of the molar value.
Experiments:
[1] = biological target: T1, GPR43 (Homo sapiens, UniProt O15552); assay: Calcium mobilization assay without probenecid; format: cell-based; conditions: GPR43 stably expressing cells, triggered with sodium acetate at EC80, read-out: GPR43 assay without probenicid IC50
T1 construct: expressed in transfected cells
T1 sequence (O15552 1-330): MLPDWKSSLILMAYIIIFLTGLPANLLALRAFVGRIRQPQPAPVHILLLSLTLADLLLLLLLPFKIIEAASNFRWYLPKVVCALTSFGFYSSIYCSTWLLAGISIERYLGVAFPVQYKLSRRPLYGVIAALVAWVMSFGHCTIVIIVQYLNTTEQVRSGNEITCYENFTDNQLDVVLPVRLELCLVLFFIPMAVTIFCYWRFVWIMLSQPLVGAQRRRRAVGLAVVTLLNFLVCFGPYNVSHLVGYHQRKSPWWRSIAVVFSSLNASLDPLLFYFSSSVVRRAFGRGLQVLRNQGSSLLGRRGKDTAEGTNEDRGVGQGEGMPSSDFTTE
Outline: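 In GPR43-expressing cells loaded with a Calcium 4 dye, antagonism was tested by a 15 min compound preincubation at 37 °C, then a sodium acetate challenge at EC80, with Ca-flux read on injection. For agonism, Ca-flux was recorded directly on compound injection.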

[2] = biological target: T1, GPR43; assay: Calcium mobilization assay with probenecid; format: cell-based; conditions: GPR43 stably expressing cells; triggered with sodium acetate at EC80; 2.5 mM probenecid; read-out: GPR43 assay with probenicid IC50
Outline: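 Cells stably expressing GPR43 plated overnight at 37 °C, then loaded 2 h with Calcium 4 dye plus 2.5 mM probenecid. […]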

[3] = test system: human neutrophils; assay: Neutrophil migration assay; format: cell-based; conditions: neutrophils from human buffy coat, migration towards sodium acetate, read-out: human neutrophil migration inhibition EC50
Protocol: G Protein-Coupled Receptor 43 (GPR43) was described as an essential player in the process of neutrophil recruitment during intestinal inflammation.
The effect of agonists or antagonists for GPR43 can therefore be assayed in a neutrophil migration test. In the neutrophil migration assay, neutrophils, isolated from buffy coats from human volunteers, are treated with a compound for 30 minutes. Subsequently, the neutrophils are transferred to the upper wells of a Corning HTS transwell 96 permeable support system, of which the lower wells are filled with a sodium acetate solution.
The ACD buffer consists of 140 mM citric acid, 200 mM sodium citrate and 220 mM dextrose. The 6% dextran/0.9% NaCl solution consists of 15 g dextran T2000 and 2.25 g NaCl dissolved in 250 mL H2O.
A human buffy coat is diluted with an equal volume of ice cold DPBS. 20 mL of the diluted buffy coat is gently mixed with 4 mL of ACD buffer. Then, 12 mL of the 6% dextran/0.9% NaCl solution is added to the mixture and the samples are inverted gently up to 20 times. The total volume is transferred to a new recipient and incubated at room temperature for 1 h for complete separation of the two phases to occur. The yellowish supernatant is then transferred to a clean centrifugation tube and centrifuged for 12 minutes at 1300 rpm and 4° C. After centrifugation, the supernatant is discarded and the remaining cell pellet is rapidly resuspended in 12 mL of ice-cold H2O for red blood cell lysis to occur. After 20 seconds, 4 mL of ice-cold 0.6 M KCl is added. Samples are mixed carefully and centrifuged for 6 minutes at 1300 rpm, 4° C. The supernatant is discarded and the red blood cell lysis procedure is repeated one more time. […] After centrifugation for 12 min at 1300 rpm, 4° C., the supernatant is removed and the cell pellet, containing the neutrophils, is resuspended in 25 mL chemotaxis buffer.
A cell suspension of 8.9×10^6 cells per milliliter is prepared. 20 μL of compound solution in chemotaxis buffer is added to 180 μl cell suspension. The mixture is incubated at 37° C. for 30 minutes with Intermediate resuspension of the cells after 15 minutes. […] The receiver well of the transwell system is then filled with 200 μL chemotaxis buffer containing compound and chemotactic agent (sodium acetate). After incubation at 37° C. in 5% CO2 for 1 h, the upper plate of the transwell system is removed and the cell suspension in the receiver plate is transferred to a 96-well V-bottom plate. 50 μL of DPBS is added to the receiver plate to prevent remaining cells from drying out. The V-bottom plate is centrifuged for 6 minutes at 1500 rpm. The supernatant is removed and the cells are resuspended in 50 μL DPBS. The cells are then transferred back to the receiver plate of the transwell system. […] The plate is incubated for 10 minutes in the dark, while shaking. 170 μL of cell lysate is then transferred to a white 96-well plate and luminescence is measured. The detected luminescent signal is considered as linearly related to the number of migrated cells.

[4] = biological target: T1, GPR43; assay: [35S]GTPγS binding assay; format: biochemical; conditions: membranes from stable cell line over expressing GPR43; sodium acetate at EC80
Protocol: The assay was performed in a 96 well plate where the following reagents were added. […] In a last step, 30 μL of a mixture consisting of membranes-GTPγS-SpA beads was added (mixture consists of 10 μg/well membranes derived from stable cell line over expressing GPR43 (membranes were pre-incubated with 3 μM GDP for 15 minutes at 4° C.), 0.1 nM [35S]GTPγS (Perkin Elmer, NEG030) and 0.5 mg/well PVT-WGA SpA beads (perkin Elmer, RPNQ0001)). […] Reactions were incubated for 240 minutes at room temperature followed by centrifugation at 2000 rpm for 15 minutes. Plates were read on a Topcount immediately after centrifugation (readout time, 1 minute/well).

Row | pIC50 [1] | pIC50 [2] | pEC50 [3] | pIC50 [4] | SMILES
1 | – | 7.00 to 11.00 | 7.00 to 11.00 | 7.00 to 7.29 | CC1(C(=O)N(CCCC(=O)O)Cc2ccc(C(F)(F)F)cc2)CCN1C(=O)Cc1csc2ccccc12 (stereo not drawn) [Compound 144, 4-[[1-(2-Benzo[b]thiophen-3-yl-acetyl)-2-methyl-azetidine-2-carbonyl]-(4-trifluoromethyl-benzyl)-amino]-butyric acid]
2 | – | 7.00 to 11.00 | 7.00 to 11.00 | < 6.30 | CC1(C(=O)N(CCC(=O)O)Cc2ccc(Cl)cc2)CCN1C(=O)c1csc2ccccc12 (stereo not drawn) [Compound 155, 3-[[1-(Benzo[b]thiophene-3-carbonyl)-2-methyl-azetidine-2-carbonyl]-(4-chloro-benzyl)-amino]-propionic acid]
3 | – | 6.30 to 7.00 | 7.00 to 11.00 | – | CC1(C(=O)N(CCCC(=O)O)Cc2ccc3cn[nH]c3c2)CCN1C(=O)c1csc2ccccc12 (stereo not drawn) [Compound 157, 4-[[1-(Benzo[b]thiophene-3-carbonyl)-2-methyl-azetidine-2-carbonyl]-(1H-indazol-6-ylmethyl)-amino]-butyric acid]
4 | – | 7.00 to 11.00 | 6.30 to 7.00 | < 6.30 | CC1(C(=O)N(CCC(=O)O)Cc2cccc(Cl)c2)CCN1C(=O)c1csc2ccccc12 (stereo not drawn) [Compound 169, 3-[[1-(Benzo[b]thiophene-3-carbonyl)-2-methyl-azetidine-2-carbonyl]-(3-chloro-benzyl)-amino]-propionic acid]
5 | – | 7.00 to 11.00 | – | 6.30 to 7.00 | CC1(C(=O)N(CCCS(N)(=O)=O)Cc2ccc(Cl)cc2)CCN1C(=O)c1csc2ccccc12 (stereo not drawn) [Compound 182, 1-(Benzo[b]thiophene-3-carbonyl)-2-methyl-azetidine-2-carboxylic acid (4-chloro-benzyl)-(3-sulfamoyl-propyl)-amide]
6 | – | 7.00 to 11.00 | – | 6.30 to 7.00 | CC1(C(=O)N(CCCS(N)(=O)=O)Cc2cccc(Cl)c2)CCN1C(=O)c1csc2ccccc12 (stereo not drawn) [Compound 187, 1-(Benzo[b]thiophene-3-carbonyl)-2-methyl-azetidine-2-carboxylic acid (3-chloro-benzyl)-(3-sulfamoyl-propyl)-amide]
7 | – | 7.00 to 11.00 | – | < 6.30 | CC1(C(=O)N(CCCC(=O)O)c2ccc(Cl)cc2)CCN1C(=O)c1csc2ccccc12 (stereo not drawn) [Compound 194, 4-[[1-(Benzo[b]thiophene-3-carbonyl)-2-methyl-azetidine-2-carbonyl]-(4-chloro-phenyl)-amino]-butyric acid]
8 | – | 7.00 to 11.00 | – | 6.30 to 7.00 | CCC1(C(=O)N(CCCC(=O)O)Cc2cccc(Cl)c2)CCN1C(=O)c1csc2ccccc12 (stereo not drawn) [Compound 195, 4-[[1-(Benzo[b]thiophene-3-carbonyl)-2-ethyl-azetidine-2-carbonyl]-(3-chloro-benzyl)-amino]-butyric acid]
9 | – | 7.00 to 11.00 | – | 6.30 to 7.00 | C[C@@H](c1ccc(Cl)cc1)N(CCCC(=O)O)C(=O)[C@@]1(C)CCN1C(=O)c1csc2ccccc12 [Compound 198, 4-{[(R)-1-(Benzo[b]thiophene-3-carbonyl)-2-methyl-azetidine-2-carbonyl]-[(S)-1-(4-chloro-phenyl)-ethyl]-amino}-butyric acid]

Second part, the compound before the results:

Row | SMILES | pIC50 [1] | pIC50 [2] | pEC50 [3] | pIC50 [4]
10 | CC1(C(=O)N(CC(=O)O)Cc2ccc(Cl)cc2)CCN1C(=O)Cc1csc2ccccc12 (stereo not drawn) [Compound 61, [[1-(2-Benzo[b]thiophen-3-yl-acetyl)-2-methyl-azetidine-2-carbonyl]-(4-chloro-benzyl)-amino]-acetic acid] | 7.00 to 11.00 | 7.00 to 11.00 | 7.00 to 11.00 | –
11 | CC1(C(=O)N(CCO)Cc2ccc(Cl)cc2)CCN1C(=O)Cc1csc2ccccc12 (stereo not drawn) [Compound 67, 1-(2-Benzo[b]thiophen-3-yl-acetyl)-2-methyl-azetidine-2-carboxylic acid (4-chloro-benzyl)-(2-hydroxy-ethyl)-amide] | 7.00 to 11.00 | < 6.00 | – | 6.30 to 7.00
12 | CC1(C(=O)N(CCCC(=O)O)Cc2ccc(Cl)cc2)CCN1C(=O)Cc1csc2ccccc12 (stereo not drawn) [Compound 89, 4-[[1-(2-Benzo[b]thiophen-3-yl-acetyl)-2-methyl-azetidine-2-carbonyl]-(4-chloro-benzyl)-amino]-butyric acid] | 7.00 to 11.00 | 7.00 to 11.00 | 7.00 to 11.00 | –
13 | Cc1cc(C)cc(CC(=O)N2CCC2(C)C(=O)N(CCCC(N)=O)Cc2ccc(Cl)cc2)c1 (stereo not drawn) [Compound 90, 1-[2-(3,5-Dimethyl-phenyl)-acetyl]-2-methyl-azetidine-2-carboxylic acid (3-carbamoyl-propyl)-(4-chloro-benzyl)-amide] | 7.00 to 11.00 | 6.30 to 7.00 | 7.00 to 11.00 | –
14 | Cc1cc(C)cc(CC(=O)N2CCC2(C)C(=O)N(CC(=O)O)Cc2ccc3cc[nH]c3c2)c1 (stereo not drawn) [Compound 96, [{1-[2-(3,5-Dimethyl-phenyl)-acetyl]-2-methyl-azetidine-2-carbonyl}-(1H-indol-6-ylmethyl)-amino]-acetic acid] | 6.30 to 7.00 | 6.30 to 7.00 | 7.00 to 11.00 | –
15 | CC1(C(=O)N(CCCC(=O)O)Cc2ccc(Cl)cc2)CCN1C(=O)c1csc2ccccc12 (stereo not drawn) [Compound 115, 4-[[1-(Benzo[b]thiophene-3-carbonyl)-2-methyl-azetidine-2-carbonyl]-(4-chloro-benzyl)-amino]-butyric acid] | – | 7.00 to 11.00 | 7.00 to 11.00 | 6.30 to 7.00
16 | CC1(C(=O)N(CCCC(=O)O)Cc2ccc3cc[nH]c3c2)CCN1C(=O)Cc1csc2ccccc12 (stereo not drawn) [Compound 128, 4-[[1-(2-Benzo[b]thiophen-3-yl-acetyl)-2-methyl-azetidine-2-carbonyl]-(1H-indol-6-ylmethyl)-amino]-butyric acid] | – | 7.00 to 11.00 | 7.00 to 11.00 | 6.30 to 7.00
17 | CC1(C(=O)N(CCCC(=O)O)Cc2ccc3cc[nH]c3c2)CCN1C(=O)c1csc2ccccc12 (stereo not drawn) [Compound 134, 4-[[1-(Benzo[b]thiophene-3-carbonyl)-2-methyl-azetidine-2-carbonyl]-(1H-indol-6-ylmethyl)-amino]-butyric acid] | – | 7.00 to 11.00 | 7.00 to 11.00 | < 6.30
